Assay results taken from patent US20250282895A1, “PHARMACEUTICAL COMPOSITIONS OF CHEMOTHERAPEUTIC AGENTS BASED ON BETA-S[…]-AMINO ACID DERIVATIVES” (priority 2021, published 2025).
Structures can show the parent of a compound that is named as a salt.

Legend:
[1] = Stability (impurities) of Compound (1c):SBE6.5-β-CD formulations at different pH values; assay type: physicochemical; conditions: listed as Compound (1c) HCl salt, mono hydrochloride salt
Procedure: The stability of Compound (1c) in formulations containing a Compound (1c): SBE6.5-β-CD guest-host inclusion complex at different pH was determined by analytical HPLC/UV. The mass ratio of Compound (1c) to SBE6.5-β-CD was either 1:54 or 1:50.
To prepare the formulations, SBE6.5-β-CD was dissolved in water for injection (WFI) by continuous stirring until a clear solution was obtained. The solution was acidified by addition of 1 N HCl. Compound (1c) was dissolved in the acidified aqueous SBE6.5-β-CD solution and water was added at Q.S. to the final volume to prepare a solution with a nominal concentration of 5.0 mg/mL of Compound (1c). The pH was adjusted with 1 N HCl to the values shown in Table 7 which corresponded to the pH of the final formulation after reconstitution with 0.9% saline. The solution was filtered through a 0.22 μm syringe filter followed by lyophilization to dryness affording a colorless powdery solid. The freeze-dried lyophilizate was reconstituted with 0.9% saline to the nominal target concentration of 5.0 mg/mL of Compound (1c). […]
Analytical HPLC/UV was performed on a HPLC chromatograph equipped with a UV detector, a Waters Xbridge® C18 column (4.6× 150 mm; 5 μm) operated at 30° C. and a personal computer for data computation. Gradients of 0.01 M potassium dihydrogen phosphate solution (KH2PO4) solution adjusted to pH to 3.0 with phosphoric acid (H3PO4): acetonitrile=850:150 (v/v) (solvent A) and acetonitrile (MeCN; solvent B) were used in the analytical HPLC/UV analyses. The needle wash was performed with 50% aqueous acetonitrile. Prior to injection into the HPLC/UV system (10 μL injection volume), samples were diluted to a nominal concentration of 0.5 mg/mL of Compound (1c) with a 0.9 M sodium chloride (NaCl) and 0.1 N hydrochloric acid (HCl) diluent. The diluent solution was prepared from 5.26 g (90.0 mmol) of sodium chloride and 850 μL of concentrated hydrochloric acid (HCl) (36-38 wt-%, d 1.184, 1.00 g, 10.2 mmol) diluted to 100 mL solution.
The HPLC/UV method used employed a gradient from 10 vol-% of solvent B to 100 vol-% of solvent B with a 36 min runtime at a flow rate of 1.5 mL/min and UV detection at 2=220 nm.

[2] = Stability of Compound (1c) hydrochloride salt/SBE6.5-β-CD guest-host inclusion complex in 0.9% saline (HPLC/UV); assay type: physicochemical; conditions: SBE6.5-β-CD complex in 0.9% saline
Procedure: A stock solution was prepared by dissolving 68.8 mg (0.206 mmol) of Compound (1c) (free base) in about 20.0 mL of a mixture of acetonitrile/water (1:1, v/v) with vortexing in a clean graduated glass cylinder (25 mL). A solution of 0.407 mL of 0.5072 M aq. HCl (0.206 mmol, 1.0 eq.; Fluka, 318957) was added with gentle vortexing, and the resulting clear solution was further diluted to 25.0 mL with a mixture of acetonitrile/water (1:1, v/v) with gentle vortexing to afford a stock solution of Compound (1c) as a mono-HCl salt of a concentration 2.75 mg/mL. This solution was filtered through a 0.45 μm nylon syringe filter into a clean 50 mL Erlenmeyer flask. Aliquots of 2.0 mL (2× 1.0 mL; 2× 2.75 mg) of the stock solution were rapidly pipetted into clean 12 mL scintillation vials. The aliquots were frozen at −78° C. (dry ice/acetone bath) and lyophilized at about 100 mTorr for about 16 hours to provide test vials each containing 6.1 mg (0.0165 mmol) of Compound (1c) mono-hydrochloride salt (mono-HCl salt) (corresponding to 5.5 mg of Compound (1c)),free base, as a colorless powdery solid.
A cyclodextrin derivative (270 mg; SBE6.5-β-CD, Captisol®, average MW 2,163 g/mol) was added to 6.1 mg (0.0165 mmol) of(S)-3-amino-4-(5-(bis(2-chloroethyl)amino)-2-methylphenyl) butanoic acid mono hydrochloride salt (Compound (1c) mono-HCl salt) in a 12 mL glass vial and dissolved in 3 mL to 4 mL of double-distilled water by vortexing for about 30 sec to provide a clear, colorless solution. The solution was filtered through a 0.45 μm nylon syringe filter into a 12 mL glass vial. The filter was washed twice with double-distilled water (each about 0.5 mL) to provide a clear colorless solution having a pH from 4.4 to 4.7. The filtered solution was frozen at −78° C. (dry ice/acetone bath) and the solvent was lyophilized off at about 100 mTorr for about 16 hours to provide a colorless powdery solid consisting of 6.1 mg (0.0165 mmol) of Compound (1c) mono-HCl salt (corresponding to 5.5 mg of Compound (1c) as free base) and 270 mg of SBE6.5-β-CD, Captisol®). Several vials with the cyclodextrin derivative/Compound (1c) mono-HCl salt guest-host inclusion complex were prepared according to this method.
The cyclodextrin derivative/Compound (1c) mono-HCl salt guest-host inclusion complex was reconstituted by dissolving the guest-host inclusion complex in 0.86 mL of 0.9% saline to provide 1.0 mL of a solution having a nominal concentration of 6.1 mg/mL of Compound (1c) mono-HCl salt guest-host inclusion complex which equates to a nominal concentration of 5.5 mg/mL of the Compound (1c)) guest-host inclusion complex.
A 0.5 mL aliquot of this solution was diluted with 5.0 mL of 0.9% saline, and the pH adjusted with 5 μL of a saturated aqueous NaHCO3 solution to provide 5.5 mL of a clear, colorless solution having a nominal concentration of 0.5 mg/mL Compound (1c) compound and a pH from 5.3 to 5.5.
A 1.0 mL aliquot of the reconstituted solution was diluted with 4.5 mL of 0.9% saline, and the pH was adjusted with about 10 μL of a saturated aqueous NaHCO3 solution to provide 5.5 mL of a clear, colorless solution having a nominal concentration of 1.0 mg/mL of Compound (1c) and a pH of 5-6.
A 1.0 mL aliquot of the reconstituted solution was diluted with 1.75 mL of 0.9% saline, and the pH was adjusted with about 10 μL of a saturated aqueous NaHCO3 solution to provide 2.75 mL of a clear, colorless solution having a nominal concentration of 2.0 mg/mL of Compound (1c) and a pH of 5-6.
The solutions were placed in glass vials and stored at either room temperature (about 25° C.) or refrigerated (about 0° C.), and the amount of Compound (1c) was measured at intervals using analytical high pressure liquid chromatography coupled to a UV detector (HPLC/UV) as described in Example 4.

[3] = Compound (1c):SBE6.5-β-CD 1:54, pH 4.1, 0 h, 5.0 mg/mL in 0.9% saline
[4] = Compound (1c):SBE6.5-β-CD 1:54, pH 4.1, Cake

For `Cc1ccc(N(CCCl)CCCl)cc1C[C@H](N)CC(=O)O` [Compound (1c)•HCl, (S)-3-amino-4-(5-(bis(2-chloroethyl)amino)-2-methylphenyl) butanoic acid mono hydrochloride salt], the “Impurity (% AUC) RRT 0.36” value [1, 3] was 1.51 % AUC, the “Impurity (% AUC) RRT 1.31” value [1, 3] was 0.18 % AUC and the “Impurity (% AUC) Total” value [1, 3] was 2.2 % AUC. For the same compound, the “Impurity (% AUC) RRT 0.36” value [1, 4] was 1.51 % AUC, the “Impurity (% AUC) RRT 1.31” value [1, 4] was 0.18 % AUC and the “Impurity (% AUC) Total” value [1, 4] was 2.13 % AUC. The “Compound (1c) (% AUC)” value ([2]; nominal 0.125 mg/mL, 0° C., 31 hours) was 93 % AUC, the “Compound (1c) (% AUC)” value ([2]; nominal 0.125 mg/mL, 25° C., 2 hours) was 98 % AUC and the “Compound (1c) (% AUC)” value ([2]; nominal 0.5 mg/mL, 0° C., 9 hours) was 99 % AUC. For the same compound, the “Compound (1c) (% AUC)” value ([2]; nominal 0.5 mg/mL, 25° C., 2 hours) was 97 % AUC, the “Compound (1c) (% AUC)” value ([2]; nominal 1.0 mg/mL, 0° C., 31 hours) was 100 % AUC and the “Compound (1c) (% AUC)” value ([2]; nominal 1.0 mg/mL, 25° C., 2 hours) was 91 % AUC. The “Compound (1c) (% AUC)” value ([2]; nominal 2.0 mg/mL, 0° C., 31 hours) was 91 % AUC and the “Compound (1c) (% AUC)” value ([2]; nominal 2.0 mg/mL, 25° C., 2 hours) was 99 % AUC.
